These results are taken from patent US20250129067A1 (Progentos Therapeutics, Inc., priority 2021, published 2025).

The subject of data set [1] is Oligodendrocyte progenitor cells (OPCs). The data set is described as follows: In vitro OPC differentiation assay, MBP expression (immunocytochemistry). To be noted: 72 hours of treatment; fold change over vehicle.
Procedure: Cortices from postnatal day (P) 1-3 rats were dissected and collected into ice cold Hank's Balanced Salt Solution (HBSS). […] Briefly, the cortical cell suspension was centrifuged and washed with buffer (0.5% BSA in PBS) and labeled with Anti-A2B5 MicroBeads (10 μL beads per 1×10^7 cells) for 15 minutes at 4° C. Following the incubation, cells were washed once with BSA buffer to remove unlabeled beads. A2B^5 positive cells were eluted on the column using the AutoMACS® (Miltenyi, as per manufacturer's protocol using “possel-s” program). Eluted cells were further washed twice with OPC growth media. Cell count was performed using Countess III cell counter (ThermoFisher; AMQAX2000) and cells were plated.
A2B5+ OPCs were plated in poly-d-lysine (PDL) coated T75 flask at a density of ˜3 million cells per flask. […] TrypLE was normalized by adding 10 mL growth media and cells were centrifuged at 1400 rpm for 10 minutes. […] The plates were allowed to sit at room temperature for 15 minutes to ensure proper dispersion of cells in a well. The plates were then transferred to the incubator (37° C.; 5% CO2).
Cells were then incubated for 72 hours at 37° C., 5% CO2 before immunostaining for MBP marker expression.
Following 72 hours of treatment, cells were fixed with 4% paraformaldehyde for 15 minutes then washed three times in DPBS. Prior to staining, cells were blocked for 15 minutes in 10% normal goat serum containing 1% BSA and 0.1% Triton X-100 in DPBS. Primary antibody (MBP @ 1:2000; Abcam AB7349) was applied to cells overnight at 4° C. in incubation solution containing 1% normal goat serum, 1% BSA, and 0.1% Triton X-100 in DPBS.
The number of differentiated MBP+ cells was normalized to the total nuclei count and percent differentiated MBP+ cells were reported.
Data set [2] has as its system GPR17+ cells (newly differentiated oligodendrocytes). The data set is described as follows: In vivo OPC differentiation, GPR17+ cells in brain. To be noted: Mus musculus, po, 24 h, read-out: GPR17 Fold Induction (Over Vehicle).
Procedure: The ability of newly constructed compounds to drive OPC differentiation and myelination in vivo was tested. The ability of these compounds to drive OPC differentiation in vivo was tested using GPR17 as an indicator of newly differentiated oligodendrocytes.
Compounds were delivered PO or IP either QD or BID. Mice were dosed once, transiently, or continuously through the treatment period, which ranged from 1-3 days.
Mice were euthanized by isoflurane exposure and transcardially perfused with 14 mL of PBS (Sigma Cat #P4417-50TAB) followed by 22 mL of 3.2% paraformaldehyde in PBS. The brains were removed and postfixed for a minimum of 24 hours in 20 mL of 3.2% paraformaldehyde.
50-micron floating sections were cut using a Leica VT1200S vibratome. Every 24th section, extending through the antero-posterior extent of the brain, was stained. The selected brain sections were washed three times in PBS for 3 minutes each. The floating sections were incubated in the primary antibodies (see Table 10, below) diluted in blocking solution overnight at room temperature on a shaker. […] The next day, the sections were again washed three times in PBS for 3 minutes each and then incubated in the secondary antibodies diluted in blocking solution for 2 hours at room temperature on a shaker. After incubation, the sections were washed three times in PBS for 3 minutes each and mounted on a slide to be imaged using the Olympus Slide Scanner VS200.
The images were analyzed using a custom protocol developed using Visiopharm software to count GPR17+ cells. Cells were considered GPR17+ if they contained an Olig2 positive nucleus, and intense GPR 17 staining that filled their processes. Statistical analysis was done using one-way ANOVA with multiple comparison in GraphPad Prism software.
Data set [3] concerns Oligodendrocyte progenitor cells (OPCs). The data set is described as follows: In vitro OPC differentiation assay, GPR17 expression (immunocytochemistry). To be noted: 72 hours, fold change over vehicle; for GPR17 Fold Induction (Over Vehicle; 3 μM): 3 μM (10× concentration, final 0.3 μM); for GPR17 Fold Induction (Over Vehicle; 5 μM): 5 μM (10× concentration, final 0.5 μM).
Procedure: To assess the effects of the PDGFRα inhibitors on OPC differentiation, primary OPCs were cultured and exposed to compounds. The number of newly generated oligodendrocytes was assessed by monitoring GPR17 expression. GPR17 is preferentially expressed in actively differentiating oligodendrocytes, allowing them to be distinguished from precursors and more differentiated oligodendrocytes.
Cortices from postnatal day (P) 1-3 rats were dissected and collected into ice cold Hank's Balanced Salt Solution (HBSS). […] Briefly, the cortical cell suspension was centrifuged and washed with buffer (0.5% BSA in PBS) and labeled with Anti-A2B^5 MicroBeads (10 μL beads per 1×10^7 cells) for 15 minutes at 4° C. Following the incubation, cells were washed once with BSA buffer to remove unlabeled beads. A2B^5 positive cells were eluted on the column using the AutoMACS® (Miltenyi, as per manufacturer's protocol using “Possel-s” program). Eluted cells were further washed twice with OPC growth media. Cell counts were performed using Countess III cell counter (ThermoFisher; AMQAX2000) and cells were plated.
The plates were allowed to sit at room temperature for 15 minutes to ensure proper dispersion of cells in a well. The plates were then transferred to the incubator (37° C.; 5% CO2).
Cells were then incubated for 72 hours at 37° C., 5% CO2 before immunostaining for GPR17 marker expression.
Following 72 hours in culture, cells were fixed with 4% paraformaldehyde for 15 minutes and then washed three times in Dulbecco's phosphate buffered saline (DPBS). Prior to immunostaining, cells were treated with a blocking solution (10% normal goat serum containing 1% BSA and 0.1% Triton® X-100 in DPBS) for 15 minutes at room temperature. Primary antibody (anti-GPR17 at 1:2000; Origene TA811615) was applied to cells overnight at 4° C. in incubation solution containing 1% normal goat serum, 1% BSA, and 0.1% Triton X-100 in DPBS. […] The secondary antibody was applied in incubation solution for 2 hours at room temperature, protected from light.
The number of differentiated GPR17+ cells was normalized to the total nuclei count and percent differentiated GPR17+ cells were reported. Statistical analysis was done using one-way ANOVA with multiple comparisons and post-hoc Tukey test in GraphPad Prism (GraphPad Software).
Data set [4] has as its target PDGFRα (Homo sapiens (Human), UniProt P16234). The data set is described as follows: PDGFRα kinase enzyme assay (Promega PDGFRα Kinase Enzyme System, ADP-Glo). It is filed as biochemical. To be noted: 150 uM ATP. The method in brief:
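Purified PDGFRα protein (20 ng) reacted with test compound per the Promega kinase system protocol. ADP formed was measured by ADP-Glo luminescence against a standard curve, giving IC50.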
A general note: ADP-Glo turns the ADP formed in a reaction into a luminescent signal.

The mark [5] stands for this setting: 11-point dose response, 10,000 nM to 0.169 nM, BLQ = below limit of quantitation, read-out: IC50 Values on PDGFRα Kinase Inhibition, IC50.

Where two headings read alike, the source gives them in different places.

PDGFRα, sequence (P16234 24-1089): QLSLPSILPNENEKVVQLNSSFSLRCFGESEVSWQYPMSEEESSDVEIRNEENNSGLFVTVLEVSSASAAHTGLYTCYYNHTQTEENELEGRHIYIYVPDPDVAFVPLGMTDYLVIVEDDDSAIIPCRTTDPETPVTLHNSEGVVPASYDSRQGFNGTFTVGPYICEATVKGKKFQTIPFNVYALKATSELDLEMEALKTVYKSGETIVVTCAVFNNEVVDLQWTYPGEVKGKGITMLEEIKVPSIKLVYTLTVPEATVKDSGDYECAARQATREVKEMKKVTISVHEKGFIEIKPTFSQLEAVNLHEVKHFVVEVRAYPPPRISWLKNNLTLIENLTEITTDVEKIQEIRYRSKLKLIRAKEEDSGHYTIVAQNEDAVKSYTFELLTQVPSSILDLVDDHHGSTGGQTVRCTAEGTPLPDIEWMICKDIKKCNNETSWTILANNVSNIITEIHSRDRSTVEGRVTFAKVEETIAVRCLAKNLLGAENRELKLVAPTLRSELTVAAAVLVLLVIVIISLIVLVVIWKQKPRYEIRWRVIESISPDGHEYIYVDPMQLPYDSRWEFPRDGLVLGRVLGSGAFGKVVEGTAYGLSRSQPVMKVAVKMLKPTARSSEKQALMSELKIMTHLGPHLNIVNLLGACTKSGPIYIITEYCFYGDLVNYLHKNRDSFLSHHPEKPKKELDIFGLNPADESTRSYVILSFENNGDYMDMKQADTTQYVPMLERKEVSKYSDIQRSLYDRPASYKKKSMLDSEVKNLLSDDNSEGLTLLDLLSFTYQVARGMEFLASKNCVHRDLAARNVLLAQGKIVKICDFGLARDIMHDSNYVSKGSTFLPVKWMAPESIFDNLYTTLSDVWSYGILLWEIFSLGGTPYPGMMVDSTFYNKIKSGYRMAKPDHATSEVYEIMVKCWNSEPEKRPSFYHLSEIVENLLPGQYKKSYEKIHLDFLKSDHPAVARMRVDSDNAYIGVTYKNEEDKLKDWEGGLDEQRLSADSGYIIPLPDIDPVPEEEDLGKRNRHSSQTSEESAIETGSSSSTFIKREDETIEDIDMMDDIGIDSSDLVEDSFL

On to `Cn1cc(-c2ccn3c(N4CCN(c5ncc(Cc6ccccc6)cn5)CC4)cnc3c2)cn1` [Compound 23, 3-[4-(5-benzylpyrimidin-2-yl)piperazin-1-yl]-7-(1-methyl-1H-pyrazol-4-yl)imidazo[1,2-a]pyridine], for which the “MBP Fold Induction (Over vehicle)” value in data set [1] worked out at 2.1. Moreover, in data set [2], the fold induction at 30 mg/kg worked out at 14.8. In data set [3], the “GPR17 Fold Induction (Over Vehicle; 3 μM)” value worked out at 9.53 and the “GPR17 Fold Induction (Over Vehicle; 5 μM)” value was found to be 3.98. In addition, the half-maximal inhibitory concentration (IC50) in data set [4] (setting [5]) is 424 nM.

Turning to `Cn1cc(-c2ccc3c(N4CCN(C(=O)O[C@@H](c5ccccc5)C(F)(F)F)CC4)cnn3c2)cn1` [Compound 64, (1S)-2,2,2-trifluoro-1-phenylethyl 4-[6-(1-methyl-1H-pyrazol-4-yl)pyrazolo[1,5-a]pyridin-3-yl]piperazine-1-carboxylate], the “MBP Fold Induction (Over vehicle)” value in data set [1] is 7.73. Also, the fold induction at 3 mg/kg in data set [2] was 2.13. For the same compound, the “GPR17 Fold Induction (Over Vehicle; 3 μM)” value in data set [3] was found to be 6.09. The 50% inhibitory concentration (IC50) in data set [4] (setting [5]) stood at 38.4 nM.

`C[C@@H](OC(=O)N1CCN(c2cnn3cc(-c4cnn(C)c4)ccc23)CC1)c1cccc2ccccc12` [Compound 269, (1R)-1-(1-naphthyl)ethyl 4-[6-(1-methyl-1H-pyrazol-4-yl)pyrazolo[1,5-a]pyridin-3-yl]piperazine-1-carboxylate]: the “MBP Fold Induction (Over vehicle)” value in data set [1] worked out at 13.54. The fold induction at 3 mg/kg in data set [2] amounted to 0.91. In addition, the “GPR17 Fold Induction (Over Vehicle; 3 μM)” value in data set [3] came to 5.70. For the same compound, the IC50 in data set [4] (setting [5]) came to 138 nM.

As for `CC(c1ccc(F)cc1)c1cnc(N2CCN(c3cnn4cc(-c5cnn(C)c5)ccc34)CC2)nc1` (stereo not shown) [Compound 258, 3-(4-(5-(1-(4-fluorophenyl)ethyl)pyrimidin-2-yl)piperazin-1-yl)-6-(1-methyl-1H-pyrazol-4-yl)pyrazolo[1,5-a]pyridine], the “MBP Fold Induction (Over vehicle)” value in data set [1] turned out to be 16.36. For the same compound, in data set [2], the fold induction at 3 mg/kg turned out to be 2.82. The “GPR17 Fold Induction (Over Vehicle; 3 μM)” value in data set [3] is on record as 9.21. In addition, the IC50 in data set [4] (setting [5]) is 803 nM.

On to `Cn1cc(-c2ccc3c(N4CCN(C(=O)OCc5cccc(C#N)c5)CC4)cnn3c2)cn1` [Compound 272, 3-cyanobenzyl 4-[6-(1-methyl-1H-pyrazol-4-yl)pyrazolo[1,5-a]pyridin-3-yl]piperazine-1-carboxylate], for which the “MBP Fold Induction (Over vehicle)” value in data set [1] is listed as 40.13. Besides, in data set [2], the fold induction at 3 mg/kg worked out at 2.47 and the fold induction at 10 mg/kg is 5.93. The “GPR17 Fold Induction (Over Vehicle; 3 μM)” value in data set [3] stood at 6.11. Moreover, the IC50 in data set [4] (setting [5]) was determined as 865 nM.

For the compound `Cn1cc(-c2ccc3c(N4CCN(C(=O)NCc5ccc(Cl)cc5)CC4)cnn3c2)cn1` [Compound 275, N-(4-chlorobenzyl)-4-[6-(1-methyl-1H-pyrazol-4-yl)pyrazolo[1,5-a]pyridin-3-yl]piperazine-1-carboxamide], in data set [1], the “MBP Fold Induction (Over vehicle)” value was found to be 2.71. Also, in data set [2], the fold induction at 3 mg/kg came out at 5.31. Moreover, the “GPR17 Fold Induction (Over Vehicle; 3 μM)” value in data set [3] turned out to be 6.70. Besides, the IC50 in data set [4] (setting [5]) worked out at 67 nM.

Consider `C[C@@H](OC(=O)N1CCN(c2cnn3cc(-c4cnn(C)c4)ccc23)CC1)c1ccc(Cl)c(Cl)c1` [Compound 311, (1R)-1-(3,4-dichlorophenyl)ethyl 4-[6-(1-methyl-1H-pyrazol-4-yl)pyrazolo[1,5-a]pyridin-3-yl]piperazine-1-carboxylate], for which, in data set [1], the “MBP Fold Induction (Over vehicle)” value turned out to be 10.47. Besides, the fold induction at 3 mg/kg in data set [2] was 2.52. The “GPR17 Fold Induction (Over Vehicle; 3 μM)” value in data set [3] worked out at 5.77. For the same compound, the IC50 in data set [4] (setting [5]) was 39.1 nM.

Regarding `Cn1cc(-c2ccc3c(N4CCN(C(=O)OC(C)(C)C)CC4)cnn3c2)cn1` [Compound 11, tert-butyl 4-[6-(1-methyl-1H-pyrazol-4-yl)pyrazolo[1,5-a]pyridin-3-yl]piperazine-1-carboxylate], the “MBP Fold Induction (Over vehicle)” value in data set [1] stood at 1.93. Moreover, in data set [2], the fold induction at 3.3 mg/kg was 2.14 and the fold induction at 10 mg/kg worked out at 9.93. For the same compound, in data set [3], the “GPR17 Fold Induction (Over Vehicle; 3 μM)” value is recorded as 10.21 and the “GPR17 Fold Induction (Over Vehicle; 5 μM)” value is on record as 4.22. The IC50 in data set [4] (20 ng purified PDGFRα, Poly (Glu4Tyr1) substrate, two hours, 11-point dose response, read-out: IC50 Values on PDGFRα Kinase Inhibition) was under 1000 nM. For the same compound, the 50% inhibitory concentration (IC50) in data set [4] (setting [5]) came to 326 nM.

For orientation: IC50 means the concentration that inhibits the measured activity by half.
